Converted amounts (≈) assume the structure as drawn.
Experiments:
Format in all cases: functional
Candida tropicalis = experiment: Antifungal activity against Candida tropicalis GIM 2.183 assessed as inhibition of fungal growth by CLSI M27-A3 guidelines based method
Cryptococcus neoformans = experiment: Antifungal activity against Cryptococcus neoformans CGMCC 2.3161 assessed as inhibition of fungal growth by CLSI M27-A3 guidelines based method
Pichia kudriavzevii = experiment: Antifungal activity against Candida krusei GIM 2.1 assessed as inhibition of fungal growth by CLSI M27-A3 guidelines based method
Candida albicans [1] = experiment: Antifungal activity against Candida albicans GIM 2.194 assessed as inhibition of fungal growth by CLSI M27-A3 guidelines based method
Candida parapsilosis = experiment: Antifungal activity against Candida parapsilosis GIM 2.190 assessed as inhibition of fungal growth by CLSI M27-A3 guidelines based method; conditions: Lodderomyces parapsilosis
Nakaseomyces glabratus = experiment: Antifungal activity against Candida glabrata assessed as inhibition of fungal growth by CLSI M27-A3 guidelines based method
Candida albicans [2] = experiment: Antifungal activity against Candida albicans SC5314 assessed as inhibition of fungal growth by CLSI M27-A3 guidelines based method

Compound | MIC80 (Candida tropicalis) [µg/mL] | MIC80 (Cryptococcus neoformans) [µg/mL] | MIC80 (Pichia kudriavzevii) [µg/mL] | MIC80 (Candida albicans [1]) [µg/mL] | MIC80 (Candida parapsilosis) [µg/mL] | MIC80 (Nakaseomyces glabratus) [µg/mL] | MIC80 (Candida albicans [2]) [µg/mL]
CN(Cc1ccc(C#Cc2ccc(F)c(F)c2)cc1)CC(O)(Cn1cncn1)c1ccc(F)cc1F (stereo unspecified) | 0.006 (≈ 0.0121 µM) | 0.013 (≈ 0.0263 µM) | 0.01 (≈ 0.0202 µM) | 0.006 (≈ 0.0121 µM) | 0.006 (≈ 0.0121 µM) | 0.03 (≈ 0.0607 µM) | 0.006 (≈ 0.0121 µM)
Cc1ccc(C#Cc2ccc(CN(C)CC(O)(Cn3cncn3)c3ccc(F)cc3F)cc2)cc1 (stereo unspecified) | 0.013 (≈ 0.0275 µM) | 0.013 (≈ 0.0275 µM) | 0.2 (≈ 0.423 µM) | 0.013 (≈ 0.0275 µM) | 0.013 (≈ 0.0275 µM) | 0.4 (≈ 0.846 µM) | 0.013 (≈ 0.0275 µM)
CN(Cc1ccc(C#Cc2cccc(I)c2)cc1)CC(O)(Cn1cncn1)c1ccc(F)cc1F (stereo unspecified) | 0.025 (≈ 0.0428 µM) | 0.025 (≈ 0.0428 µM) | 3.2 (≈ 5.48 µM) | 0.05 (≈ 0.0856 µM) | 0.025 (≈ 0.0428 µM) | 3.2 (≈ 5.48 µM) | 0.05 (≈ 0.0856 µM)
CN(Cc1ccc(C#Cc2ccc([N+](=O)[O-])cc2F)cc1)CC(O)(Cn1cncn1)c1ccc(F)cc1F (stereo unspecified) | 0.006 (≈ 0.0115 µM) | 0.025 (≈ 0.0479 µM) | 0.05 (≈ 0.0959 µM) | 0.006 (≈ 0.0115 µM) | 0.006 (≈ 0.0115 µM) | 0.03 (≈ 0.0575 µM) | 0.006 (≈ 0.0115 µM)
CN(Cc1ccc(C#Cc2ccc([N+](=O)[O-])cc2)cc1)CC(O)(Cn1cncn1)c1ccc(F)cc1F (stereo unspecified) | 0.006 (≈ 0.0119 µM) | 0.013 (≈ 0.0258 µM) | 0.03 (≈ 0.0596 µM) | 0.006 (≈ 0.0119 µM) | 0.006 (≈ 0.0119 µM) | 0.03 (≈ 0.0596 µM) | 0.006 (≈ 0.0119 µM)
CN(Cc1ccc(C#Cc2ccc(Cl)cc2)cc1)CC(O)(Cn1cncn1)c1ccc(F)cc1F (stereo unspecified) | 0.013 (≈ 0.0264 µM) | 0.013 (≈ 0.0264 µM) | 0.03 (≈ 0.0609 µM) | 0.013 (≈ 0.0264 µM) | 0.006 (≈ 0.0122 µM) | 0.05 (≈ 0.101 µM) | 0.006 (≈ 0.0122 µM)
CN(Cc1ccc(C#Cc2ccc(OCc3ccccc3)cc2)cc1)CC(O)(Cn1cncn1)c1ccc(F)cc1F (stereo unspecified) | 0.05 (≈ 0.0886 µM) | 0.1 (≈ 0.177 µM) | 0.1 (≈ 0.177 µM) | 0.013 (≈ 0.023 µM) | 0.2 (≈ 0.354 µM) | 0.1 (≈ 0.177 µM) | 0.05 (≈ 0.0886 µM)
CN(Cc1ccc(C#Cc2cc(F)c(F)cc2F)cc1)CC(O)(Cn1cncn1)c1ccc(F)cc1F (stereo unspecified) | 0.006 (≈ 0.0117 µM) | 0.013 (≈ 0.0254 µM) | 0.03 (≈ 0.0585 µM) | 0.006 (≈ 0.0117 µM) | 0.006 (≈ 0.0117 µM) | 0.01 (≈ 0.0195 µM) | 0.006 (≈ 0.0117 µM)
CN(Cc1ccc(C#Cc2ccc(I)cc2)cc1)CC(O)(Cn1cncn1)c1ccc(F)cc1F (stereo unspecified) | 0.013 (≈ 0.0222 µM) | 0.013 (≈ 0.0222 µM) | 0.03 (≈ 0.0513 µM) | 0.006 (≈ 0.0103 µM) | 0.006 (≈ 0.0103 µM) | 0.01 (≈ 0.0171 µM) | 0.006 (≈ 0.0103 µM)
CN(Cc1ccc(C#Cc2ccc(Br)cc2F)cc1)CC(O)(Cn1cncn1)c1ccc(F)cc1F (stereo unspecified) | 0.006 (≈ 0.0108 µM) | 0.025 (≈ 0.045 µM) | 0.03 (≈ 0.054 µM) | 0.006 (≈ 0.0108 µM) | 0.006 (≈ 0.0108 µM) | 0.03 (≈ 0.054 µM) | 0.006 (≈ 0.0108 µM)
CCc1ccc(C#Cc2ccc(CN(C)CC(O)(Cn3cncn3)c3ccc(F)cc3F)cc2)cc1 (stereo unspecified) | 0.013 (≈ 0.0267 µM) | 0.025 (≈ 0.0514 µM) | 0.05 (≈ 0.103 µM) | 0.013 (≈ 0.0267 µM) | 0.013 (≈ 0.0267 µM) | 0.1 (≈ 0.206 µM) | 0.013 (≈ 0.0267 µM)
C[C@@H](N(C)Cc1ccc(C#Cc2ccc(C(F)(F)F)cc2)cc1)[C@](O)(Cn1cncn1)c1ccc(F)cc1F | 0.013 (≈ 0.0241 µM) | 0.05 (≈ 0.0925 µM) | 0.1 (≈ 0.185 µM) | 0.05 (≈ 0.0925 µM) | 0.013 (≈ 0.0241 µM) | 0.05 (≈ 0.0925 µM) | 0.025 (≈ 0.0463 µM)
CN(Cc1ccc(C#Cc2ccc([N+](=O)[O-])c(F)c2)cc1)CC(O)(Cn1cncn1)c1ccc(F)cc1F (stereo unspecified) | 0.006 (≈ 0.0115 µM) | 0.025 (≈ 0.0479 µM) | 0.01 (≈ 0.0192 µM) | 0.006 (≈ 0.0115 µM) | 0.006 (≈ 0.0115 µM) | 0.01 (≈ 0.0192 µM) | 0.006 (≈ 0.0115 µM)
CN(Cc1ccc(C#Cc2ccccc2Cl)cc1)CC(O)(Cn1cncn1)c1ccc(F)cc1F (stereo unspecified) | 0.013 (≈ 0.0264 µM) | 0.013 (≈ 0.0264 µM) | 0.03 (≈ 0.0609 µM) | 0.006 (≈ 0.0122 µM) | 0.006 (≈ 0.0122 µM) | 0.8 (≈ 1.62 µM) | 0.013 (≈ 0.0264 µM)
CN(Cc1ccc(C#Cc2ccc(O)cc2)cc1)CC(O)(Cn1cncn1)c1ccc(F)cc1F (stereo unspecified) | 0.025 (≈ 0.0527 µM) | 0.2 (≈ 0.421 µM) | 3.2 (≈ 6.74 µM) | 0.025 (≈ 0.0527 µM) | 0.025 (≈ 0.0527 µM) | 3.2 (≈ 6.74 µM) | 0.013 (≈ 0.0274 µM)
CN(Cc1ccc(C#Cc2ccc(Br)cc2)cc1)CC(O)(Cn1cncn1)c1ccc(F)cc1F (stereo unspecified) | 0.025 (≈ 0.0465 µM) | 0.013 (≈ 0.0242 µM) | 0.01 (≈ 0.0186 µM) | 0.013 (≈ 0.0242 µM) | 0.006 (≈ 0.0112 µM) | 0.03 (≈ 0.0558 µM) | 0.013 (≈ 0.0242 µM)
CN(Cc1ccc(C#Cc2cccc(Br)c2)cc1)CC(O)(Cn1cncn1)c1ccc(F)cc1F (stereo unspecified) | 0.013 (≈ 0.0242 µM) | 0.013 (≈ 0.0242 µM) | 0.2 (≈ 0.372 µM) | 0.006 (≈ 0.0112 µM) | 0.006 (≈ 0.0112 µM) | 0.8 (≈ 1.49 µM) | 0.025 (≈ 0.0465 µM)
CN(Cc1ccc(C#Cc2cc(F)c(Br)cc2F)cc1)CC(O)(Cn1cncn1)c1ccc(F)cc1F (stereo unspecified) | 0.006 (≈ 0.0105 µM) | 0.025 (≈ 0.0436 µM) | 0.03 (≈ 0.0523 µM) | 0.006 (≈ 0.0105 µM) | 0.006 (≈ 0.0105 µM) | 0.03 (≈ 0.0523 µM) | 0.006 (≈ 0.0105 µM)
